The assay has as its target human dihydroorotate dehydrogenase (HsDHODH) (Homo sapiens, UniProt Q02127). It counts as biochemical.

Chain of human dihydroorotate dehydrogenase (HsDHODH) (Q02127 whole entry): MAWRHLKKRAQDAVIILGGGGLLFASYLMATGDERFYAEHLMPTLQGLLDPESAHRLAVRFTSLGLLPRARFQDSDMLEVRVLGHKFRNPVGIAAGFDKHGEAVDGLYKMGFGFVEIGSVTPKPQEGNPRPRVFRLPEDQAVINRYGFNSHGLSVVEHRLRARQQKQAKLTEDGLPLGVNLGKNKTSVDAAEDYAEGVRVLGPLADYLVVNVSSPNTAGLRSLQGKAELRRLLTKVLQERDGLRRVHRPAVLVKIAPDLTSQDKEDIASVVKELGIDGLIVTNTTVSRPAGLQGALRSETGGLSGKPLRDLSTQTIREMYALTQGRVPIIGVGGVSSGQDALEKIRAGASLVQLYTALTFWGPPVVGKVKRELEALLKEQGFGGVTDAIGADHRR

As usually defined, the IC50 is the concentration needed to halve the response being measured. High values mean weaker potency, low ones greater potency. Consider `O=C(/C=C/c1ccc(O)c(O)c1)OCCc1ccccc1` [CAPE, caffeic acid phenethyl ester], for which half-maximal inhibition (IC50) required 121 ± 6.78 µM.
